In ChEMBL document CHEMBL4138123, “Design, synthesis and biological evaluation of novel pyrazolochalcones as potential modulators of PI3K/Akt/mTOR pathway and inducers of apoptosis in breast cancer cells” (Eur J Med Chem, 2017):

Tests used:
Format in all cases: functional
SK-MEL-5 = experiment: Cytotoxicity against human SK-MEL-5 cells assessed as cell growth at 10 uM after 48 hrs by sulforhodamine B assay relative to control; conditions: SK-MEL-5, 48 h, read-out: Activity
HCC 2998 [1] = experiment: Cytotoxicity against human HCC2998 cells assessed as growth inhibition after 48 hrs by sulforhodamine B assay; conditions: HCC 2998, 48 h
OVCAR-4 = experiment: Cytotoxicity against human OVCAR4 cells assessed as cell growth at 0.01 uM after 48 hrs by sulforhodamine B assay relative to control; conditions: OVCAR-4, 48 h, read-out: Activity
HCT-116 [2] = experiment: Cytotoxicity against human HCT116 cells assessed as cell growth at 0.01 uM after 48 hrs by sulforhodamine B assay relative to control; conditions: HCT-116, 48 h, read-out: Activity
NCI/ADR-RES [3] = experiment: Cytotoxicity against human NCI/ADR-RES cells assessed as growth inhibition after 48 hrs by sulforhodamine B assay
CCRF-CEM = experiment: Cytotoxicity against human CCRF-CEM cells assessed as cell growth at 0.1 uM after 48 hrs by sulforhodamine B assay relative to control; conditions: read-out: Activity
HCC 2998 [4] = experiment: Cytotoxicity against human HCC2998 cells assessed as cell growth at 1 uM after 48 hrs by sulforhodamine B assay relative to control; conditions: HCC 2998, 48 h, read-out: Activity
NCI-H322M [5] = experiment: Cytotoxicity against human NCI-H322M cells assessed as cell growth at 100 uM after 48 hrs by sulforhodamine B assay relative to control; conditions: read-out: Activity
T47D [6] = experiment: Cytotoxicity against human T47D cells assessed as growth inhibition after 48 hrs by sulforhodamine B assay
HOP-62 [7] = experiment: Cytotoxicity against human HOP62 cells assessed as cell growth at 0.01 uM after 48 hrs by sulforhodamine B assay relative to control; conditions: HOP-62, 48 h, read-out: Activity
A498 [8] = experiment: Cytotoxicity against human A498 cells assessed as cell growth at 100 uM after 48 hrs by sulforhodamine B assay relative to control; conditions: A498, 48 h, read-out: Activity
A498 [9] = experiment: Cytotoxicity against human A498 cells assessed as growth inhibition after 48 hrs by sulforhodamine B assay; conditions: A498, 48 h
HOP-62 [10] = experiment: Cytotoxicity against human HOP62 cells assessed as cell growth at 1 uM after 48 hrs by sulforhodamine B assay relative to control; conditions: HOP-62, 48 h, read-out: Activity
MCF7 [11] = experiment: Cytotoxicity against human MCF7 cells assessed as growth inhibition after 48 hrs by sulforhodamine B assay; conditions: MCF7, 48 h
786-0 = experiment: Cytotoxicity against human 786-0 cells assessed as cell growth at 10 uM after 48 hrs by sulforhodamine B assay relative to control; conditions: 786-0, 48 h, read-out: Activity
Hs-578T [12] = experiment: Cytotoxicity against human Hs 578T cells assessed as growth inhibition after 48 hrs by sulforhodamine B assay
OVCAR-5 = experiment: Cytotoxicity against human OVCAR5 cells assessed as cell growth at 1 uM after 48 hrs by sulforhodamine B assay relative to control; conditions: OVCAR-5, 48 h, read-out: Activity
MDA-MB-231 = experiment: Cytotoxicity against human MDA-MB-231 cells assessed as cell growth at 0.01 uM after 48 hrs by sulforhodamine B assay relative to control; conditions: MDA-MB-231, 48 h, read-out: Activity
UACC-62 = experiment: Cytotoxicity against human UACC62 cells assessed as cell growth at 100 uM after 48 hrs by sulforhodamine B assay relative to control; conditions: UACC-62, 48 h, read-out: Activity
A498 [13] = experiment: Cytotoxicity against human A498 cells assessed as cell growth at 0.1 uM after 48 hrs by sulforhodamine B assay relative to control; conditions: A498, 48 h, read-out: Activity
NCI-H322M [14] = experiment: Cytotoxicity against human NCI-H322M cells assessed as cell growth at 0.1 uM after 48 hrs by sulforhodamine B assay relative to control; conditions: read-out: Activity
SN12C [15] = experiment: Cytotoxicity against human SN12C cells assessed as growth inhibition after 48 hrs by sulforhodamine B assay
T47D [16] = experiment: Cytotoxicity against human T47D cells assessed as cell growth at 1 uM after 48 hrs by sulforhodamine B assay relative to control; conditions: read-out: Activity
MDA-MB-435 = experiment: Cytotoxicity against human MDA-MB-435 cells assessed as growth inhibition after 48 hrs by sulforhodamine B assay; conditions: MDA-MB-435, 48 h
HCT-15 [17] = experiment: Cytotoxicity against human HCT15 cells assessed as cell growth at 100 uM after 48 hrs by sulforhodamine B assay relative to control; conditions: HCT-15, 48 h, read-out: Activity
SNB-19 = experiment: Cytotoxicity against human SNB19 cells assessed as cell growth at 0.1 uM after 48 hrs by sulforhodamine B assay relative to control; conditions: SNB-19, 48 h, read-out: Activity
NCI-H226 = experiment: Cytotoxicity against human NCI-H226 cells assessed as cell growth at 1 uM after 48 hrs by sulforhodamine B assay relative to control; conditions: NCI-H226, 48 h, read-out: Activity
NCI/ADR-RES [18] = experiment: Cytotoxicity against human NCI/ADR-RES cells assessed as cell growth at 1 uM after 48 hrs by sulforhodamine B assay relative to control; conditions: read-out: Activity
MCF7 [19] = experiment: Cytotoxicity against human MCF7 cells assessed as cell growth at 100 uM after 48 hrs by sulforhodamine B assay relative to control; conditions: MCF7, 48 h, read-out: Activity
Hs-578T [20] = experiment: Cytotoxicity against human Hs 578T cells assessed as cell growth at 100 uM after 48 hrs by sulforhodamine B assay relative to control; conditions: read-out: Activity
HCT-15 [21] = experiment: Cytotoxicity against human HCT15 cells assessed as cell growth at 10 uM after 48 hrs by sulforhodamine B assay relative to control; conditions: HCT-15, 48 h, read-out: Activity
SW-620 [22] = experiment: Cytotoxicity against human SW620 cells assessed as growth inhibition after 48 hrs by sulforhodamine B assay; conditions: SW-620, 48 h
SN12C [23] = experiment: Cytotoxicity against human SN12C cells assessed as cell growth at 0.01 uM after 48 hrs by sulforhodamine B assay relative to control; conditions: read-out: Activity
SW-620 [24] = experiment: Cytotoxicity against human SW620 cells assessed as cell growth at 10 uM after 48 hrs by sulforhodamine B assay relative to control; conditions: SW-620, 48 h, read-out: Activity
PC-3 = experiment: Cytotoxicity against human PC3 cells assessed as cell growth at 1 uM after 48 hrs by sulforhodamine B assay relative to control; conditions: PC-3, 48 h, read-out: Activity
HCT-116 [25] = experiment: Cytotoxicity against human HCT116 cells assessed as cell growth at 10 uM after 48 hrs by sulforhodamine B assay relative to control; conditions: HCT-116, 48 h, read-out: Activity

COc1ccc(-c2cc(/C=C/C(=O)c3ccc(N)cc3)[nH]n2)cc1
growth at 10 µM (SK-MEL-5): -3%
GI50 (HCC 2998 [1]): 1.83 µM
LC50 (HCC 2998 [1]): 6.17 µM
TGI (HCC 2998 [1]): 3.36 µM
growth at 0.01 µM (OVCAR-4): 88%
growth at 0.01 µM (HCT-116 [2]): 97%
GI50 (NCI/ADR-RES [3]): 2.86 µM
LC50 (NCI/ADR-RES [3]): > 100 µM
TGI (NCI/ADR-RES [3]): 15.5 µM
growth at 0.1 µM (CCRF-CEM): 98%
growth at 1 µM (HCC 2998 [4]): 100%
growth at 100 µM (NCI-H322M [5]): -98%
GI50 (T47D [6]): 1.47 µM
LC50 (T47D [6]): 85.8 µM
TGI (T47D [6]): 9.77 µM
growth at 0.01 µM (HOP-62 [7]): 107%
growth at 100 µM (A498 [8]): -96%
GI50 (A498 [9]): 2.03 µM
LC50 (A498 [9]): 15.4 µM
TGI (A498 [9]): 4.95 µM
growth at 1 µM (HOP-62 [10]): 102%
GI50 (MCF7 [11]): 0.78 µM
LC50 (MCF7 [11]): 34.1 µM
TGI (MCF7 [11]): 3.84 µM
growth at 10 µM (786-0): -29%
GI50 (Hs-578T [12]): 4.04 µM
LC50 (Hs-578T [12]): > 100 µM
TGI (Hs-578T [12]): 24.4 µM
growth at 1 µM (OVCAR-5): 92%
growth at 0.01 µM (MDA-MB-231): 93%
growth at 100 µM (UACC-62): -93%
growth at 0.1 µM (A498 [13]): 97%
growth at 0.1 µM (NCI-H322M [14]): 89%
GI50 (SN12C [15]): 1.89 µM
LC50 (SN12C [15]): 34.9 µM
TGI (SN12C [15]): 6.63 µM
growth at 1 µM (T47D [16]): 60%
GI50 (MDA-MB-435): 2.24 µM
LC50 (MDA-MB-435): 38.2 µM
TGI (MDA-MB-435): 7 µM
growth at 100 µM (HCT-15 [17]): -59%
growth at 0.1 µM (SNB-19): 89%
growth at 1 µM (NCI-H226): 86%
growth at 1 µM (NCI/ADR-RES [18]): 85%
growth at 100 µM (MCF7 [19]): -68%
growth at 100 µM (Hs-578T [20]): -35%
growth at 10 µM (HCT-15 [21]): -40%
GI50 (SW-620 [22]): 1.69 µM
LC50 (lethal concentration, 50% net cell kill) (SW-620 [22]): 56.2 µM
TGI (SW-620 [22]): 5.41 µM
growth at 0.01 µM (SN12C [23]): 93%
growth at 10 µM (SW-620 [24]): -26%
growth at 1 µM (PC-3): 81%
growth at 10 µM (HCT-116 [25]): -53%

COc1cc(C(=O)/C=C/c2cc(-c3ccc4c(c3)OCO4)n[nH]2)cc(OC)c1OC
growth at 10 µM (SK-MEL-5): 14%
GI50 (HCC 2998 [1]): 2.02 µM
LC50 (HCC 2998 [1]): 8.23 µM
TGI (HCC 2998 [1]): 4.07 µM
growth at 0.01 µM (OVCAR-4): 97%
growth at 0.01 µM (HCT-116 [2]): 101%
GI50 (NCI/ADR-RES [3]): 2.99 µM
LC50 (NCI/ADR-RES [3]): > 100 µM
TGI (NCI/ADR-RES [3]): 12.3 µM
growth at 0.1 µM (CCRF-CEM): 98%
growth at 1 µM (HCC 2998 [4]): 100%
growth at 100 µM (NCI-H322M [5]): -95%
GI50 (T47D [6]): 1.51 µM
LC50 (T47D [6]): 19.9 µM
TGI (T47D [6]): 4.63 µM
growth at 0.01 µM (HOP-62 [7]): 100%
growth at 100 µM (A498 [8]): -98%
GI50 (A498 [9]): 1.75 µM
LC50 (A498 [9]): 15.3 µM
TGI (A498 [9]): 4.65 µM
growth at 1 µM (HOP-62 [10]): 93%
GI50 (MCF7 [11]): 1.06 µM
LC50 (MCF7 [11]): 7.88 µM
TGI (MCF7 [11]): 2.88 µM
growth at 10 µM (786-0): -84%
GI50 (Hs-578T [12]): 3.14 µM
LC50 (Hs-578T [12]): > 100 µM
TGI (Hs-578T [12]): 20.5 µM
growth at 1 µM (OVCAR-5): 87%
growth at 0.01 µM (MDA-MB-231): 100%
growth at 100 µM (UACC-62): -96%
growth at 0.1 µM (A498 [13]): 90%
growth at 0.1 µM (NCI-H322M [14]): 94%
GI50 (SN12C [15]): 2.26 µM
LC50 (SN12C [15]): 23.4 µM
TGI (SN12C [15]): 6.28 µM
growth at 1 µM (T47D [16]): 68%
GI50 (MDA-MB-435): 2.28 µM
LC50 (MDA-MB-435): 22.5 µM
TGI (MDA-MB-435): 5.8 µM
growth at 100 µM (HCT-15 [17]): -45%
growth at 0.1 µM (SNB-19): 93%
growth at 1 µM (NCI-H226): 70%
growth at 1 µM (NCI/ADR-RES [18]): 94%
growth at 100 µM (MCF7 [19]): -69%
growth at 100 µM (Hs-578T [20]): -22%
growth at 10 µM (HCT-15 [21]): -16%
GI50 (SW-620 [22]): 1.62 µM
LC50 (lethal concentration, 50% net cell kill) (SW-620 [22]): 8.9 µM
TGI (SW-620 [22]): 3.8 µM
growth at 0.01 µM (SN12C [23]): 98%
growth at 10 µM (SW-620 [24]): -57%
growth at 1 µM (PC-3): 71%
growth at 10 µM (HCT-116 [25]): -43%
